Data taken from PubChem BioAssay (NCI).
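Compound exposure: 48 hours, 5 concentrations, 96-well plates. Abbreviation: GI50, concentration required for 50% inhibition of growth. TGI denotes the concentration required for complete inhibition of growth.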

Columns and labels:
Assay in all cases: growth of human tumour cells (NCI), 48 h
786-0 renal = tested on: 786-0 renal
A549 NSCLC = tested on: A549 NSCLC
ACHN renal = tested on: ACHN renal
CAKI-1 renal = tested on: CAKI-1 renal
CCRF-CEM leukemia = tested on: CCRF-CEM leukemia
COLO 205 colon = tested on: COLO 205 colon
DU-145 prostate = tested on: DU-145 prostate
EKVX NSCLC = tested on: EKVX NSCLC
HCT-116 colon = tested on: HCT-116 colon
HCT-15 colon = tested on: HCT-15 colon
HL-60(TB) leukemia = tested on: HL-60(TB) leukemia
HOP-62 NSCLC = tested on: HOP-62 NSCLC
HS 578T breast = tested on: HS 578T breast
HT29 colon = tested on: HT29 colon
IGROV1 ovarian = tested on: IGROV1 ovarian
K-562 leukemia = tested on: K-562 leukemia
KM12 colon = tested on: KM12 colon
LOX IMVI melanoma = tested on: LOX IMVI melanoma
M14 melanoma = tested on: M14 melanoma
MALME-3M melanoma = tested on: MALME-3M melanoma
MCF7 breast = tested on: MCF7 breast
MDA-MB-231 breast = tested on: MDA-MB-231 breast
MDA-MB-435 = tested on: MDA-MB-435
MOLT-4 leukemia = tested on: MOLT-4 leukemia
NCI-H226 lung = tested on: NCI-H226 lung
NCI-H460 lung = tested on: NCI-H460 lung
NCI-H522 lung = tested on: NCI-H522 lung
NCI/ADR-RES ovarian = tested on: NCI/ADR-RES ovarian
OVCAR-3 ovarian = tested on: OVCAR-3 ovarian
OVCAR-5 ovarian = tested on: OVCAR-5 ovarian
OVCAR-8 ovarian = tested on: OVCAR-8 ovarian
PC-3 prostate = tested on: PC-3 prostate
RPMI-8226 leukemia = tested on: RPMI-8226 leukemia
RXF 393 renal = tested on: RXF 393 renal
SF-268 CNS = tested on: SF-268 CNS
SF-295 CNS = tested on: SF-295 CNS
SF-539 CNS = tested on: SF-539 CNS
SK-MEL-2 melanoma = tested on: SK-MEL-2 melanoma
SK-MEL-28 melanoma = tested on: SK-MEL-28 melanoma
SK-MEL-5 melanoma = tested on: SK-MEL-5 melanoma
SK-OV-3 ovarian = tested on: SK-OV-3 ovarian
SN12C renal = tested on: SN12C renal
SNB-19 CNS = tested on: SNB-19 CNS
SNB-75 CNS = tested on: SNB-75 CNS
SR leukemia = tested on: SR leukemia
SW-620 colon = tested on: SW-620 colon
T-47D breast = tested on: T-47D breast
TK-10 renal = tested on: TK-10 renal
U251 CNS = tested on: U251 CNS
UACC-257 melanoma = tested on: UACC-257 melanoma
UACC-62 melanoma = tested on: UACC-62 melanoma
UO-31 renal = tested on: UO-31 renal
A498 renal = tested on: A498 renal
HOP-92 NSCLC = tested on: HOP-92 NSCLC
NCI-H23 lung = tested on: NCI-H23 lung
OVCAR-4 ovarian = tested on: OVCAR-4 ovarian

Compound: Cc1nc(N)sc1N=Nc1cc(Cl)c([N+](=O)[O-])cc1Cl
- TGI (786-0 renal): > 100000 nM
- TGI (A549 NSCLC): 31500 nM
- TGI (ACHN renal): 55900 nM
- TGI (CAKI-1 renal): 68500 nM
- TGI (CCRF-CEM leukemia): 35000 nM
- TGI (COLO 205 colon): > 100000 nM
- TGI (DU-145 prostate): 32500 nM
- TGI (EKVX NSCLC): 37700 nM
- TGI (HCT-116 colon): > 100000 nM
- TGI (HCT-15 colon): 79300 nM
- TGI (HL-60(TB) leukemia): 57700 nM
- TGI (HOP-62 NSCLC): 65000 nM
- TGI (HS 578T breast): 95900 nM
- TGI (HT29 colon): 28700 nM
- TGI (IGROV1 ovarian): 47200 nM
- TGI (K-562 leukemia): 30000 nM
- TGI (KM12 colon): 37700 nM
- TGI (LOX IMVI melanoma): 36800 nM
- TGI (M14 melanoma): > 100000 nM
- TGI (MALME-3M melanoma): 32700 nM
- TGI (MCF7 breast): 68800 nM
- TGI (MDA-MB-231 breast): 45900 nM
- TGI (MDA-MB-435): 42100 nM
- TGI (MOLT-4 leukemia): 22400 nM
- TGI (NCI-H226 lung): 44400 nM
- TGI (NCI-H460 lung): 86700 nM
- TGI (NCI-H522 lung): 35500 nM
- TGI (NCI/ADR-RES ovarian): 70400 nM
- TGI (OVCAR-3 ovarian): 40000 nM
- TGI (OVCAR-5 ovarian): 84600 nM
- TGI (OVCAR-8 ovarian): 36800 nM
- TGI (PC-3 prostate): 53300 nM
- TGI (RPMI-8226 leukemia): 21800 nM
- TGI (RXF 393 renal): > 100000 nM
- TGI (SF-268 CNS): 88500 nM
- TGI (SF-295 CNS): 54600 nM
- TGI (SF-539 CNS): 41800 nM
- TGI (SK-MEL-2 melanoma): 60000 nM
- TGI (SK-MEL-28 melanoma): 33900 nM
- TGI (SK-MEL-5 melanoma): 19400 nM
- TGI (SK-OV-3 ovarian): > 100000 nM
- TGI (SN12C renal): 56100 nM
- TGI (SNB-19 CNS): > 100000 nM
- TGI (SNB-75 CNS): 30500 nM
- TGI (SR leukemia): 26500 nM
- TGI (SW-620 colon): 35800 nM
- TGI (T-47D breast): > 100000 nM
- TGI (TK-10 renal): 52100 nM
- TGI (U251 CNS): 44700 nM
- TGI (UACC-257 melanoma): 44700 nM
- TGI (UACC-62 melanoma): 36100 nM
- TGI (UO-31 renal): 66900 nM

Compound: CN1C(=O)c2cc([N+](=O)[O-])ccc2[C@H]2C(=O)c3cc4c(cc3[C@H]21)OCO4
- GI50 (786-0 renal): 38.8 nM
- GI50 (A498 renal): 257 nM
- TGI (A498 renal): 528 nM
- GI50 (A549 NSCLC): 115 nM
- TGI (A549 NSCLC): 1880 nM
- GI50 (ACHN renal): 13.4 nM
- TGI (ACHN renal): 46.3 nM
- GI50 (CAKI-1 renal): < 10 nM
- TGI (CAKI-1 renal): 228 nM
- GI50 (COLO 205 colon): 225 nM
- TGI (COLO 205 colon): > 61200 nM
- GI50 (DU-145 prostate): 50.6 nM
- TGI (DU-145 prostate): 14900 nM
- GI50 (EKVX NSCLC): 993 nM
- TGI (EKVX NSCLC): > 24500 nM
- GI50 (HCT-116 colon): 14.1 nM
- TGI (HCT-116 colon): 128 nM
- GI50 (HCT-15 colon): 190 nM
- TGI (HCT-15 colon): > 50000 nM
- GI50 (HL-60(TB) leukemia): 215 nM
- TGI (HL-60(TB) leukemia): > 100000 nM
- GI50 (HOP-62 NSCLC): 158 nM
- TGI (HOP-62 NSCLC): > 100000 nM
- GI50 (HOP-92 NSCLC): 1490 nM
- GI50 (HS 578T breast): 930 nM
- TGI (HS 578T breast): > 100000 nM
- GI50 (HT29 colon): 179 nM
- TGI (HT29 colon): > 43200 nM
- GI50 (IGROV1 ovarian): 153 nM
- TGI (IGROV1 ovarian): 12000 nM
- GI50 (K-562 leukemia): 199 nM
- TGI (K-562 leukemia): > 100000 nM
- GI50 (KM12 colon): 337 nM
- GI50 (LOX IMVI melanoma): 16.1 nM
- TGI (LOX IMVI melanoma): 155 nM
- GI50 (M14 melanoma): < 10 nM
- TGI (M14 melanoma): 37 nM
- GI50 (MCF7 breast): 118 nM
- TGI (MCF7 breast): 451 nM
- GI50 (MDA-MB-231 breast): 360 nM
- TGI (MDA-MB-231 breast): 4710 nM
- GI50 (MDA-MB-435): 167 nM
- TGI (MDA-MB-435): 2720 nM
- GI50 (MOLT-4 leukemia): 145 nM
- TGI (MOLT-4 leukemia): > 100000 nM
- GI50 (NCI-H23 lung): 210 nM
- TGI (NCI-H23 lung): 796 nM
- GI50 (NCI-H460 lung): 28.5 nM
- TGI (NCI-H460 lung): 195 nM
- GI50 (NCI-H522 lung): < 17.9 nM
- TGI (NCI-H522 lung): 9420 nM
- GI50 (NCI/ADR-RES ovarian): 68.4 nM
- TGI (NCI/ADR-RES ovarian): 15200 nM
- GI50 (OVCAR-3 ovarian): 75.1 nM
- TGI (OVCAR-3 ovarian): 455 nM
- GI50 (OVCAR-4 ovarian): 680 nM
- TGI (OVCAR-4 ovarian): > 100000 nM
- GI50 (OVCAR-5 ovarian): 299 nM
- TGI (OVCAR-5 ovarian): 926 nM
- GI50 (OVCAR-8 ovarian): 70.2 nM
- GI50 (PC-3 prostate): 521 nM
- TGI (PC-3 prostate): 63000 nM
- GI50 (RPMI-8226 leukemia): 43.5 nM
- GI50 (RXF 393 renal): 398 nM
- GI50 (SF-268 CNS): 24.3 nM
- TGI (SF-268 CNS): 1680 nM
- GI50 (SF-295 CNS): < 10 nM
- TGI (SF-295 CNS): 1010 nM
- GI50 (SF-539 CNS): 41 nM
- TGI (SF-539 CNS): 973 nM
- GI50 (SK-MEL-2 melanoma): 1910 nM
- TGI (SK-MEL-2 melanoma): > 45800 nM
- GI50 (SK-MEL-28 melanoma): 250 nM
- TGI (SK-MEL-28 melanoma): > 32400 nM
- GI50 (SK-MEL-5 melanoma): 53.4 nM
- TGI (SK-MEL-5 melanoma): 176 nM
- GI50 (SK-OV-3 ovarian): 588 nM
- TGI (SK-OV-3 ovarian): > 100000 nM
- GI50 (SN12C renal): 38.6 nM
- TGI (SN12C renal): 838 nM
- GI50 (SNB-19 CNS): 220 nM
- TGI (SNB-19 CNS): > 28200 nM
- GI50 (SNB-75 CNS): 120 nM
- TGI (SNB-75 CNS): > 100000 nM
- GI50 (SW-620 colon): 48.1 nM
- TGI (SW-620 colon): > 100000 nM
- GI50 (T-47D breast): 321 nM
- TGI (T-47D breast): > 29400 nM
- GI50 (TK-10 renal): 1280 nM
- GI50 (U251 CNS): 19.1 nM
- TGI (U251 CNS): 162 nM
- GI50 (UACC-257 melanoma): 139 nM
- TGI (UACC-257 melanoma): 3300 nM
- GI50 (UACC-62 melanoma): 35.6 nM
- TGI (UACC-62 melanoma): 337 nM
- GI50 (UO-31 renal): 40.9 nM
- TGI (UO-31 renal): 1510 nM
